Data from patent US8946439B2, “Amide compounds, compositions and uses thereof” (Evotec AG, priority 2008, dated 2015).
pIC50: −log10 of the molar value. Read-outs that look alike come from different tables or passages of the source.

What was measured:
hP2X3 = target: T1, hP2X3 (Homo sapiens, UniProt P56373); assay: Calcium uptake assay (P2X antagonist assay), P2X3 homomer; assay type: cell-based; details: hP2X3; for pIC50: Ca influx (calcium uptake assay), read-out: IC50 hP2X3; for IC50: calcium uptake assay, read-out: IC50 hP2X3 (nM), Ca Influx
T1 construct: expressed in transfected cells; host or cells: e.g. HEK293 or 1321N1
T1 sequence (P56373 1-397): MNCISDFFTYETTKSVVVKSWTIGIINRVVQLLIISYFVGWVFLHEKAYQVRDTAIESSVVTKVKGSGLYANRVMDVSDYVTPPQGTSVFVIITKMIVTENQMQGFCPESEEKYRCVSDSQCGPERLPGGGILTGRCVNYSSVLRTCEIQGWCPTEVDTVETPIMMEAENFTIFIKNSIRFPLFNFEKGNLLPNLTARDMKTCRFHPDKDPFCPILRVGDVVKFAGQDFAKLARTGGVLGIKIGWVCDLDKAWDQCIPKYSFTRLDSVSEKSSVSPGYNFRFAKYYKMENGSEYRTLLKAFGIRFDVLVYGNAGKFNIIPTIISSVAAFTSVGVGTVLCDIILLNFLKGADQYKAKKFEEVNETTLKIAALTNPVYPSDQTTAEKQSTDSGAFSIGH
Method in brief: (§1)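 Stably or transiently transfected HEK293 or 1321N1 cells; the heteromer is made by adding P2X3 to a P2X2-stable line, with heteromer function isolated pharmacologically. The peak-minus-baseline FLIPR calcium signal gives % inhibition and a 4-parameter-logistic IC50.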

hP2X2/3H = target: T2, hP2X2/3H (Homo sapiens, UniProt P56373+Q9UBL9); assay: Calcium uptake assay (P2X antagonist assay), P2X2/3 heteromer; assay type: cell-based; details: hP2X2/3H; for pIC50: Ca influx (calcium uptake assay), read-out: IC50 hP2X2/3H; for IC50: calcium uptake assay, read-out: IC50 hP2X2/3H (nM), Ca Influx
T2 construct: expressed in transfected cells; host or cells: e.g. HEK293 or 1321N1
T2 sequence (Q9UBL9 1-471): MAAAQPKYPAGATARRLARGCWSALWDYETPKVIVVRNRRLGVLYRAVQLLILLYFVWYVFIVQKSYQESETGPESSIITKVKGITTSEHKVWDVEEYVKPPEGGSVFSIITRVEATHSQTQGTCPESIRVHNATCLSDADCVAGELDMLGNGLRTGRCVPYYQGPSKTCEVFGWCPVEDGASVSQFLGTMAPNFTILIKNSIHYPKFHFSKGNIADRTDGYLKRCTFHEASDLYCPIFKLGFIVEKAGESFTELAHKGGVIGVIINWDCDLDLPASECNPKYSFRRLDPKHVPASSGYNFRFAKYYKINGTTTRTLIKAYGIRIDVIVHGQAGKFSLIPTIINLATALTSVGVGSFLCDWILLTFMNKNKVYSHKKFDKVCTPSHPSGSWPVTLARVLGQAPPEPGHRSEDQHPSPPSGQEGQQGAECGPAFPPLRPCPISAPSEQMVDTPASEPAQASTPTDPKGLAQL
T2 sequence (P56373 1-397): T1 sequence (P56373 1-397)
Method in brief: as §1

Row | Structure (SMILES) | pIC50 (hP2X3) | pIC50 (hP2X2/3H) | IC50 (hP2X3) [nM] | IC50 (hP2X2/3H) [nM]
1 | Cc1ccc(-c2cc(C(=O)N[C@H](CO)c3ccc(C(F)F)nc3)cc(S(C)(=O)=O)c2)cc1 [Compound 207] | > 7.00 | > 7.00 | – | –
2 | Cc1ccc(-c2cc(C(=O)N[C@H](C)c3ccc(C)nc3)cc(S(=O)(=O)C3CCCC3)c2)cc1 [Compound 218] | > 7.00 | > 7.00 | – | –
3 | Cc1ccc(-c2cc(C(=O)N[C@H](C)c3ccc(C)nc3)cc(C(O)C(F)(F)F)c2)c(C#N)c1 (stereo partly drawn) [Compound 295, 2′-Cyano-4′-methyl-N—((R)-1-(6-methylpyridin-3-yl)ethyl)-5-(2,2,2-trifluoro-1-hydroxyethyl)biphenyl-3-carboxamide] | > 7.00 | > 7.00 | – | –
4 | Cc1ccc(-c2cc(OCCO)cc(C(=O)NCc3ccc(C)nc3)c2)cc1 [Compound 301] | > 7.00 | 6.30 to 7.00 | – | –
5 | Cc1ccc(-c2cc(C(=O)NC(C)c3cnccn3)cc(C(=O)N(C)CC(C)C)c2)cc1 (centres unmarked) [Compound 8, N3-Isobutyl-N3,4′-dimethyl-N-5-(1-(pyrazin-2-yl)ethyl)biphenyl-3,5-dicarboxamide] | – | – | < 100 | 100 to 500
6 | Cc1ccc(-c2cc(CO)cc(C(=O)NCc3ccc(C)nc3)c2)c(C#N)c1 [Compound 306] | > 7.00 | 6.30 to 7.00 | – | –

Second part, the molecule after the results:

Row | pIC50 (hP2X3) | pIC50 (hP2X2/3H) | IC50 (hP2X3) [nM] | IC50 (hP2X2/3H) [nM] | Structure (SMILES)
7 | – | – | < 100 | < 100 | Cc1ccc(-c2cc(C(=O)NCc3ccn4ccnc4c3)cc(C(=O)N3CCCC3)c2)cc1 [Compound 50]
8 | > 7.00 | > 7.00 | – | – | Cc1ccc([C@@H](C)NC(=O)c2cc(C(=O)N3CCCC3)cc(-c3ccc(Br)cc3)c2)cn1 [Compound 217]
9 | – | – | < 100 | < 100 | COC1CCN(C(=O)c2cc(C(=O)NCc3cnc(C)nc3)cc(-c3ccc(C)cc3)c2)C1 (centres unmarked) [Compound 32]
10 | 6.30 to 7.00 | < 6.00 | – | – | Cc1ccc(-c2cc(OC(F)(F)F)cc(C(=O)NCc3ccc(C)nc3)c2)nc1 [Compound 220, 3-(5-Methylpyridin-2-yl)-N-((6-methylpyridin-3-yl)methyl)-5-(trifluoromethoxy)benzamide]
11 | > 7.00 | > 7.00 | – | – | COCC(CO)Oc1cc(C(=O)N[C@H](C)c2ccc(C)nc2)cc(-c2ccc(C)cn2)c1 (some centres unmarked) [Compound 348]
12 | > 7.00 | 6.30 to 7.00 | – | – | Cc1ccc(-c2cc(CO)cc(C(=O)N[C@H](C)c3cnc(C)nc3)c2)c(C#N)c1 [Compound 303]
13 | > 7.00 | 6.30 to 7.00 | – | – | Cc1ccc(-c2cc(OCC3COCCO3)cc(C(=O)N[C@H](C)c3ccc(C)nc3)c2)nc1 (some centres unmarked) [Compound 332]
